Test results from US20120301468A1, “ANTI-MN ANTIBODIES AND METHODS OF USING SAME” (BAYER HEALTHCARE LLC, priority 2005, published 2012).

Tests used:
[1] = tested on: MN-negative MIAPaca2 cells; test: In vitro cytotoxicity, MIAPaca2
[2] = tested on: high MN-expressing huMN-MIAPaCa2 xenograft; test: huMN-MIAPaCa2 xenograft model; format: in vivo, mice; conditions: for TGI: end of dosing
Experimental: To better understand the relationship between MN expression and antitumor efficacy, xenograft efficacy studies were conducted using a low MN-expressing pancreatic model, MIAPaCa2 and high MN-expressing huMN-MIAPaCa2 model. This latter line was derived by engineering the MIAPaCa2 line to stably express MN. […] 3ee9/MMAE dosed at 10 mg/kg only produced 50% TGI.

[3] = tested on: mitochondria-associated CA5; test: Binding to CA5
[4] = In vivo distribution; set-up: species or system mice; conditions: Table 4 profile
Text: The Maestro™ in-vivo imaging system (CRI, Woburn, Mass.) with multi-spectral acquisition and analysis is designed to eliminate auto-fluorescence background. Mabs 3ee9 of BAY 79-4620, M75 (mouse monoclonal recognizing MN) and control human IgG, were conjugated with Alexa Fluor 750 (Invitrogen Cat# A20011) according to manufacturer's instructions. The ratio of Protein/AF750 (mol/mol) was 1/5.9 for 3ee9, 8.9 for human IgG, and 6.0 for M75.
Twelve days before the injection of each fluorescence-labeled antibody, Harlan Balb/C nudes were implanted with MIAPaCa-2 (low MN-expressing; 7.5×10^6 cells in 50% Matrigel) subcutaneously in the right flank, and huMN-MIAPaCa2 (MN transfected stable cell line; 5×10^6 cells in 50% Matrigel) subcutaneously in the left flank. 4 μg of conjugated antibody was injected on Day 0 (12 days post implant) to each animal. Imaging was done on Day 4, Day 5 and Day 10. Data were collected using animals that were anaesthetized (100 mg/kg ketamine/10 mg/kg xylazine, i.p.), and placed inside the imaging system. Multi-spectral image cubes (series of images) were acquired with images spaced every 10 nm throughout the spectral range of 680 to 950 nm, which covered the Near Infrared (NIR) range.
Each image was exposed for 5 seconds. False-colored images were synthesized from the spectral cube using Maestro software and scaled to visible brightness using ImagePro Plus 6.0. […]

3ee9/MMAE: human anti-MN IgG1 antibody 3ee9 conjugated to Monomethylauristatin E (MMAE)
cytotoxicity ([1]; MIAPaca2 (MN−)): not to MN-negative MIAPaca2 cells
killing of MN-negative cells ([1]; doses as high as 1 uM): Less than 10%
EC50 ([1]; read-out: Cytotoxicity: MN− (ec50), MN− cells): > 1 µM
TGI ([2]; 2.5 mg/kg): 63%
TGI ([2]; 5 mg/kg): 82%
responses ([2]; 10 mg/kg): 100%
TGI ([2]; 10 mg/kg): 94%
binding to CA5 [3]: Binding to mitochondria-associated CA5 was observed
In vivo distribution [4]: normal
